This passage reports ring closure, yield of all isomers results from EP3828186B1.

Each structure is given as a SMILES string. Where two headings read alike, the source gives them in different places.

The conditions of this data set: rcm bond, Grubbs II.

`C[C@@H]1/C=C/C[C@H](NC(=O)OC(C)(C)C)c2cc(ccn2)-c2c(cnn2C)NC1=O`: the ring closure, yield of all isomers (from C=CC[C@H](NC(=O)OC(C)(C)C)c1cc(-c2c(NC(=O)[C@H](C)C=C)cnn2C)ccn1, DCE, 34.7 mM, 120.0 °C, 0.5 h) turned out to be 23%.

Consider `C[C@@H]1/C=C/C[C@H](NC(=O)OCc2ccccc2)c2cc(ccn2)-c2c(cnn2COCC[Si](C)(C)C)NC1=O`, for which, under “from C=CC[C@H](NC(=O)OCc1ccccc1)c1cc(-c2c(NC(=O)[C@H](C)C=C)cnn2COCC[Si](C)(C)C)ccn1, DCE, 108.0 mM, 120.0 °C, 0.5 h”, the ring closure, yield of all isomers was 42%. Under “from [2H]C([2H])([2H])n1ncc(NC(=O)[C@H](C)C=C)c1-c1ccnc([C@H](CC=C)NC(=O)OC(C)(C)C)c1, DCE, 13.2 mM, 120.0 °C, 0.5 h”, `[2H]C([2H])([2H])n1ncc2c1-c1ccnc(c1)[C@@H](NC(=O)OC(C)(C)C)CC=C[C@@H](C)C(=O)N2` came in with a ring closure, yield of all isomers of 26%. In turn, `C[C@@H]1/C=C/C[C@H](NC(=O)OC(C)(C)C)c2cc(ccn2)-c2c(cnn2C(F)F)NC1=O` yielded a ring closure, yield of all isomers (from C=CC[C@H](NC(=O)OC(C)(C)C)c1cc(-c2c(NC(=O)[C@H](C)C=C)cnn2C(F)F)ccn1, EtOAc, 5.0 mM, 77.0 °C, 24.0 h) of 76%. In turn, `C[C@@H]1/C=C/C[C@H](NC(=O)OC(C)(C)C)c2ccnc(c2)-c2c(cnn2C)NC1=O` showed a ring closure, yield of all isomers (from C=CC[C@H](NC(=O)OC(C)(C)C)c1ccnc(-c2c(NC(=O)[C@H](C)C=C)cnn2C)c1, DCE, 18.8 mM, 120.0 °C, 0.5 h) of 19%.
